From article PMC6201930 (PLoS ONE, 2018)
“And” between values parts separate entries of the source, which are not always exact repeats. Equal entries are not always repeated. Where two headings read alike, the source gives them in different places.

Key:
[1] = tested on: tGFP-CFTR542X-HA-HIS construct (codon 542 UGA) in 293H cells; experiment: tGFP-542X readthrough assay (HA-HIS MSD immunoassay); format: cell-based, human
[2] = tested on: fLuc mRNA harboring a UGA nonsense mutation at codon 190 (fLuc-190-NS); format: biochemical, rabbit
From the text: ThefLuc-190-NS assay is an in vitro rabbit reticulocyte lysate translation of an fLuc mRNA harboring a UGA nonsense mutation at codon 190 (fLuc-190-NS). It is believed that positively charged aminoglycosides are poorly taken up by cells, and we used this cell-free readthrough assay to eliminate the potential variable of cell uptake when measuring readthrough potency. […] Readthrough protein was detected using a HA-HIS MSD immunoassay described previously.
This cell-free translation assay used synthetic LUC mRNAs harboring an EMCV IRES and LUC codon 190-UGA premature stop codon prepared using the MegaScript in vitro transcription kit (Ambion). Translation reactions were done with the Rabbit Reticulocyte Lysate System (Promega) with 100 ng RNA and increasing concentrations of aminoglycosides. The amount of luminescence produced was determined after approximately 4 hours using a Viewlux CCD imager (Perkin-Elmer). Fold suppression over background was calculated as (aminoglycoside light units/PBS light units).

[3] = Neuromast toxicity assay (DASPEI staining); details: zebrafish, zebrafish embryos 5 dpf, neuromasts (hair cells), other: embryos exposed to the drug in 24-well plates
Description: All neuromast cytotoxicity assays were done at Biobide–BBD Biophenix SL (Gipuzkoa, Spain). […] Compounds were tested at 5 doses. After 24 hours of exposure embryos were incubated in DASPEI (2-(4-(dimethylamino)styryl) -N-Ethylpyridinium Iodide) for neuromast staining. Images of each embryo were taken and neuromasts counted. A compound was classified as ototoxic when the number of neuromasts in the treated group was less than that in the untreated control group (One Way ANOVA, multiple comparisons vs. vehicle).

[4] = Cytotoxicity in myoblasts; details: mouse, primary mouse myoblasts
From the text: (§1) When considering compounds for potential readthrough therapy it is important to monitor cellular and animal safety. In order to determine the most promising compounds to further evaluate in in vivo safety, we measured cytotoxicity in two different cell types. We used activated human peripheral blood mononuclear cells (PBMCs) (Table 2 and Fig 2D and 2E). PBMCs are a primary cell that when activated with phytohaemagglutinin (PHA) expand quickly and are commonly used as an in vitro surrogate for rapidly growing cells in the human body to evaluate cytotoxicity. Prior to advancing compounds into human studies, safety evaluation in rodents is performed. As an in vitro surrogate for rodent toxicity, we used primary mouse myoblasts.

[5] = tested on: activated human peripheral blood mononuclear cells (PBMCs); experiment: Cytotoxicity in stimulated PBMCs (CellTitre-Glo ATP); details: read-out: Stimulated PBMC CC50, individual determinations (S1 File)
From the text: as §1
(§2) Frozen human Peripheral Blood Mononuclear Cells (PBMCs) were obtained from […] (Alameda, CA, Cat# PB003F) from a single donor. […] Plates were incubated at 37°C with 5% CO2 for 4 hours prior to compound treatment. Compounds were serially diluted and added to the plates. Plates were incubated at 37°C, 5% CO2 incubator, for 72 hours prior to determinations of ATP levels. Cell viability was determined using a chemiluminescent assay to monitor adenosine triphosphate (ATP) levels in live cells (CellTitre-Glo; CTG; Promega, Cat#G7571). Methods were performed per the manufacturer’s instructions.

[6] = as above; details: human
From the text: as §1, §2

[7] = tested on: p53 R213* UGA premature termination codon in HDQ-P1 mammary carcinoma cells; experiment: HDQ-p53UGA213 readthrough assay (full-length p53, MSD immunoassay); format: cell-based, human; details: for HDQ-p53UGA213 (Maxfold): maximum readthrough activity above background
Description: We utilized HDQ-P1 mammary carcinoma cells, which are homozygous for R213*, a UGA premature termination codon in the gene for the tumor suppressor protein p53 [30]. […] Western blot hybridization and Meso Scale Discovery (MSD) immunoassay detection of p53 were done as previously described. […] Cells (45K per well) were grown in 96-well plates and treated with compounds for 24 hours. […] Cells were lysed with 60 μl per well of lysis buffer (20 mM Tris-HCL, pH 7.5, 1 mM EGTA, 1 mM EDTA,150 mM Nacl, 0.5% Triton X100) for one hour at room temperature and 30 μl of lysate per well were transferred to the coated plate and incubated overnight at 4 °C. […] Plates were then washed three times with PBS-T and 30 μl of 0.25 μ/ml goat anti-rabbit IgG-Sulfo-tag antibody (MSD) in TBS-C was added and incubated for 1 hour at room temperature. Plates were then washed three times with PBS-T and 150 μl read buffer (MSD) was added. Plates were read immediately in a SECTOR S 600 (MSD).

[8] = tested on: primary mouse myoblasts; experiment: Cytotoxicity in myoblasts; details: read-out: Myoblast CC50; individual determinations (S1 File)
From the text: as §1

[9] = 293H cells, 24 hours, average ± SD
[10] = individual experiments (S1 File)
[11] = individual experiments (S1 File), unit not printed for EC5X (EC2X of the sheet in uM)
[12] = maximum readthrough above background, average ± SD
[13] = Neuromast CC50, AVERAGE (S1 File)
[14] = Neuromast CC50, individual determinations (S1 File)
[15] = Myoblast CC50, AVERAGE (S1 File)
[16] = Myoblast CC50, individual determinations (S1 File)
[17] = Stimulated PBMC CC50, AVERAGE (S1 File)
[18] = concentration required to double the level of full-length p53 protein, average ± SD, at least three experiments, highest concentration 300 μM
[19] = individual experiments (S1 File), max fold
[20] = AVERAGE (S1 File), unit not given for EC5X
[21] = individual experiments (S1 File), listed as PTC-0302307 (C1)
[22] = individual experiments (S1 File), unit not printed for EC5X (EC2X of the sheet in uM), listed as PTC-0302307 (C1)

Row | Structure (SMILES) | tGFP-542X EC2X [1, 9] [µM] | tGFP-542X Maxfold ([1]; AVERAGE (S1 File)) | tGFP-542X EC2X [1, 10] | tGFP-542X Maxfold [1, 10] | tGFP-542X EC5X [1, 11] | tGFP-542X Maxfold [1, 12] [fold] | fLuc-190-NS EC2X ([2]; AVERAGE (S1 File)) [µM] | fLuc-190-NS MaxFold ([2]; AVERAGE (S1 File)) | fLuc-190-NS EC2X ([2]; cell-free, average ± SD) [µM] | fLuc-190-NS MaxFold ([2]; cell-free, average ± SD) [fold] | fLuc-190-NS EC2X [2, 10] | fLuc-190-NS MaxFold [2, 10] | fLuc-190-NS EC5X [2, 11] | tGFP-542X EC2X ([1]; AVERAGE (S1 File)) [µM] | CC50 at 24 h [3, 13] [µM] | CC50 at 24 h [3, 14] [µM] | HDQ-p53UGA213 EC2X ([7]; AVERAGE (S1 File)) [µM] | HDQ-p53UGA213 max ([7]; AVERAGE (S1 File)) | HDQ-p53UGA213 EC2X [7, 18] [µM] | HDQ-p53UGA213 (Maxfold) ([7]; average ± SD) [fold] | other results
1 | CN[C@@H]1[C@@H](O)[C@@H](O[C@@H]2[C@@H](O)[C@H](O[C@H]3OC(CN)=CC[C@H]3N)[C@@H](N)C[C@H]2N)OC[C@]1(C)O [Sisomycin] | >1000 | 1.3 | >1000 µM | 1.27 and 1.38 and 1.37 | >1000 | 1 ± 0.1 | 2.6 | 4.0 | 2.596 ± 0.428 | 4 ± 0.5 | 2.96 µM and 2.70 µM and 2.13 µM | 3.55 and 3.95 and 4.47 | >30 | – | – | – | – | – | – | – | –
2 | CN[C@@H]1[C@@H](O)[C@@H](O[C@@H]2[C@@H](O)[C@H](O[C@H]3O[C@H](CO)[C@@H](O)[C@H](O)[C@H]3N)[C@@H](N)C[C@H]2N)OC[C@H]1O [Gentamicin A, gentamicin A] | 385 ± 123 | 3.8 | 490.42 µM and 415.81 µM and 249.27 µM | 3.32 and 4.14 and 3.99 | >1000 | 4 ± 0.4 | 0.45 | 6.7 | 0.45 ± 0.015 | 6.7 ± 0.4 | 0.44 µM and 0.47 µM and 0.45 µM | 6.38 and 6.62 and 7.20 | 1.95 and 2.14 | 385.2 | 17 | 17 | 585.5 | 2.7 | 586 ± 100 | 3 ± 0.4 | CC50 [4, 15]: 6210 µM; CC50 [4, 16]: 6210 µM; CC50 [5]: > 1250 µM and 3620 µM; CC50 at 72 h [6, 17]: 3620 µM; HDQ-p53UGA213 EC2X [7, 10]: 658.30 µM and 626.86 µM and 471.32 µM; HDQ-p53UGA213 max [7, 19]: 2.50 and 3.24 and 2.45; fLuc-190-NS EC5X [2, 20]: 2.0
3 | CN[C@@H]1[C@@H](O)[C@@H](O[C@@H]2[C@@H](O)[C@H](O[C@H]3O[C@H]([C@@H](C)N)CC[C@H]3N)[C@@H](N)C[C@H]2N)OC[C@]1(C)O [Gentamicin C2, gentamicin C2] | 266 ± 44 | 8.9 | 225 µM and 260 µM and 312.48 µM | 11 and 9 and 7.29 | 566 and 647 and 748.53 | 9 ± 2 | 1.1 | 97.2 | 1.086 ± 0.763 | 97 ± 12 | 1.97 µM and 0.62 µM and 0.67 µM | 84.91 and 97.65 and 109.15 | 2.76 and 1.44 and 1.41 | 265.9 | 2.8 | 2.8 | 141.9 | 5.8 | 142 ± 86 | 6 ± 5 | tGFP-542X EC5X [1, 20]: 653.9; CC50 [8]: 6100 µM and 4310 µM and 911 µM; CC50 [4, 15]: 3780 µM; CC50 [5]: 3800 µM and 566 µM; CC50 at 72 h [6, 17]: 2180 µM; HDQ-p53UGA213 EC2X ([7]; concentration required to double the level of full-length p53 protein, average ± SD, at least three experiments, highest concentration 300 μM, listed as C2): triple digit; HDQ-p53UGA213 EC2X [7, 10]: 34.99 µM and 16.61 µM and 97.73 µM and 112.3 µM and 133.88 µM and 91.16 µM and 121.67 µM and 256.3 µM and 179.64 µM and 255.57 µM and 260.59 µM; HDQ-p53UGA213 max [7, 19]: 4.1 and 15.8 and 4 and 3.2 and 5.2 and 3.9 and 2.4 and 15.7 and 3.5 and 3; fLuc-190-NS EC5X [2, 20]: 1.9
4 | CN[C@@H]1[C@@H](O)[C@@H](O[C@@H]2[C@@H](O)[C@H](O[C@H]3O[C@H]([C@@H](C)NC)CC[C@H]3N)[C@@H](N)C[C@H]2N)OC[C@]1(C)O [Gentamicin C1, gentamicin C1] | 439 ± 192 | 3.4 | – | – | – | 3 ± 2 | 1.1 | 18.9 | 1.061 ± 0.262 | 19 ± 2 | – | – | – | 439.1 | 9.4 | 9.4 | 311.4 | 4.8 | 311 ± 321 | 5 ± 3 | tGFP-542X EC5X [1, 20]: 825.7; tGFP-542X EC2X [1, 21]: 303 µM and 575 µM and >1000 µM; tGFP-542X Maxfold [1, 21]: 6 and 2 and 1.70; tGFP-542X EC5X [1, 22]: 826 and >1000; CC50 ([5]; listed as PTC-0302307 (C1)): > 1000 µM; CC50 at 72 h ([6]; Stimulated PBMC CC50, individual determinations (S1 File)): > 1250 µM; HDQ-p53UGA213 EC2X ([7]; concentration required to double the level of full-length p53 protein, average ± SD, at least three experiments, highest concentration 300 μM, listed as C1): triple digit; HDQ-p53UGA213 EC2X [7, 21]: 74.03 µM and 776.89 µM and 269.47 µM and 125.28 µM; HDQ-p53UGA213 max ([7]; individual experiments (S1 File), max fold, listed as PTC-0302307 (C1)): 6.40 and 2.10 and 2.50 and 8.00; fLuc-190-NS EC5X [2, 20]: 2.6; fLuc-190-NS EC2X [2, 21]: 1.36 µM and 0.90 µM and 0.92 µM; fLuc-190-NS MaxFold [2, 21]: 18.25 and 17.61 and 20.78; fLuc-190-NS EC5X [2, 22]: 2.89 and 2.68 and 2.37
5 | CN[C@@H]1[C@@H](O)[C@@H](O[C@@H]2[C@@H](O)[C@H](O[C@H]3O[C@H]([C@H](C)N)CC[C@H]3N)[C@@H](N)C[C@H]2N)OC[C@]1(C)O [Gentamicin C2a, gentamicin C2a] | 583 ± 110 | 2.8 | 691 µM and 586 µM and 471.89 µM | 2.62 and 2.35 and 3.32 | >1000 | 3 ± 0.5 | 1.1 | 32.1 | 1.077 ± 0.029 | 32 ± 5 | 1.08 µM and 1.10 µM and 1.05 µM | 26.96 and 33.13 and 36.29 | 2.91 and 2.75 and 2.60 | 582.8 | 2.7 | 2.7 | 251.7 | 4.2 | 252 ± 49 | 4 ± 1 | CC50 [4, 15]: 5680 µM; CC50 [4, 16]: 4640 µM; CC50 [5]: > 1250 µM; CC50 at 72 h [6, 17]: 6710 µM; HDQ-p53UGA213 EC2X ([7]; concentration required to double the level of full-length p53 protein, average ± SD, at least three experiments, highest concentration 300 μM, listed as C2a): triple digit; HDQ-p53UGA213 EC2X [7, 10]: 217.36 µM and 286.09 µM; HDQ-p53UGA213 max [7, 19]: 3.40 and 5.00; fLuc-190-NS EC5X [2, 20]: 2.8
